test system: oval-leafed pondweed; assay: Test Example 2: herbicidal activity, application during weed generation under submerged conditions (Table 17, symbol C); format: in vivo, oval-leafed pondweed (Monochoria vaginalis); conditions: AAH 320 g/ha; application during weed generation, submerged conditions
Summary of the method: (§1)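 Wagner pot, alluvial soil, 4 cm flood; mixed sowing of all species; greenhouse 25° C.–30° C. Emulsifiable formulation, water-diluted to predetermined dose, applied to paddy water at 1–2 leaf stage. Effect rated at 3 wk using the earlier test's scoring criteria.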

Structure (SMILES) | herbicidal effect rating, C: oval-leafed pondweed
CON=C(C)c1ccc(-c2sc3ccc(F)cc3c2-c2c(O)c(C)nn(C)c2=O)cc1 [2-079] | 2 (Herbicidal rate of 20% or more and less than 40%)
CCCC(=O)Oc1c(C)nn(C)c(=O)c1-c1c(-c2ccc(C(C)=NOC)cc2)sc2ccc(F)cc12 [2-080] | 4 (Herbicidal rate of 70% or more and less than 90%)

test system: barnyard grass; assay: Test Example 3: herbicidal effect by foliage application, Wagner pot (Table 18, symbol H); format: in vivo, barnyard grass (Echinochloa crus-galli); conditions: 320 g/ha
Summary of the method: (§2)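 Plants were sown in alluvial soil held under 0.1–0.5 cm standing water and grown 14 days in a greenhouse at 25–30 °C. An emulsifiable formulation, water-diluted to the set dose, was then sprayed onto the foliage, and effects were scored three weeks later using previously defined criteria.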

Structure (SMILES) | herbicidal effect on H (barnyard grass), rating 0-5
CON=C(C)c1ccc(-c2sc3ccc(F)cc3c2-c2c(O)c(C)nn(C)c2=O)cc1 [2-079] | 5 (Herbicidal rate of 90% or more (almost completely withered))
CCCC(=O)Oc1c(C)nn(C)c(=O)c1-c1c(-c2ccc(C(C)=NOC)cc2)sc2ccc(F)cc12 [2-080] | 5 (Herbicidal rate of 90% or more (almost completely withered))

test system: Japanese bulrush; assay: Test Example 1: herbicidal activity, application before weed generation under submerged conditions (Table 16, symbol B); format: in vivo, Japanese bulrush (Schoenoplectus juncoides); conditions: 320 g/ha applied herbicide
Summary of the method: (§3)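 Emulsion formulation, water-diluted to set dose, was put onto the flooded surface (4 cm depth, alluvial soil) the same day weeds were sown and 2.5-leaf rice transplanted. After 3 weeks at 25-30 °C under glass, each species was rated 0 (≤5% kill) to 5 (≥90% kill).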

Structure (SMILES) | Herbicidal effect on B: Japanese bulrush (grade 0-5)
CON=C(C)c1ccc(-c2sc3ccc(F)cc3c2-c2c(O)c(C)nn(C)c2=O)cc1 [2-079] | 3 (Herbicidal rate of 40% or more and less than 70%)
CCCC(=O)Oc1c(C)nn(C)c(=O)c1-c1c(-c2ccc(C(C)=NOC)cc2)sc2ccc(F)cc12 [2-080] | 5 (Herbicidal rate of 90% or more (almost completely withered))

test system: southern crabgrass; assay: Test Example 5: herbicidal effect by foliage application, plastic box (Table 20, symbol F); format: in vivo, southern crabgrass (Digitaria ciliaris); conditions: foliage application, 320 g/ha, evaluated three weeks after application
Summary of the method: (§4)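 Plants sown in sterilized diluvial soil and grown 14 days in a greenhouse at 25° C to 30° C, then sprayed on the foliage with the compound's emulsion diluted in water to a predetermined herbicide amount. Injury to weeds and crops scored three weeks after application on a visual rating scale.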

Structure (SMILES) | herbicidal effect on F: southern crabgrass
CON=C(C)c1ccc(-c2sc3ccc(F)cc3c2-c2c(O)c(C)nn(C)c2=O)cc1 [2-079] | 5 (Herbicidal rate of 90% or more (almost completely withered))
CCCC(=O)Oc1c(C)nn(C)c(=O)c1-c1c(-c2ccc(C(C)=NOC)cc2)sc2ccc(F)cc12 [2-080] | 5 (Herbicidal rate of 90% or more (almost completely withered))

test system: late watergrass; assay: Test Example 1: herbicidal activity, application before weed generation under submerged conditions (Table 16, symbol A); format: in vivo, late watergrass (Echinochloa oryzicola); conditions: 320 g/ha applied herbicide
Summary of the method: as §3

Structure (SMILES) | Herbicidal effect on A: late watergrass (grade 0-5)
CON=C(C)c1ccc(-c2sc3ccc(F)cc3c2-c2c(O)c(C)nn(C)c2=O)cc1 [2-079] | 1 (Herbicidal rate of 5% or more and less than 20%)
CCCC(=O)Oc1c(C)nn(C)c(=O)c1-c1c(-c2ccc(C(C)=NOC)cc2)sc2ccc(F)cc12 [2-080] | 5 (Herbicidal rate of 90% or more (almost completely withered))

test system: rice flat sedge; assay: Test Example 3: herbicidal effect by foliage application, Wagner pot (Table 18, symbol E); format: in vivo, rice flat sedge (Cyperus iria); conditions: 320 g/ha
Summary of the method: as §2

Structure (SMILES) | herbicidal effect on E (rice flat sedge), rating 0-5
CON=C(C)c1ccc(-c2sc3ccc(F)cc3c2-c2c(O)c(C)nn(C)c2=O)cc1 [2-079] | 5 (Herbicidal rate of 90% or more (almost completely withered))
CCCC(=O)Oc1c(C)nn(C)c(=O)c1-c1c(-c2ccc(C(C)=NOC)cc2)sc2ccc(F)cc12 [2-080] | 5 (Herbicidal rate of 90% or more (almost completely withered))

test system: Chinese sprangletop; assay: Test Example 3: herbicidal effect by foliage application, Wagner pot (Table 18, symbol D); format: in vivo, chinese sprangletop (Leptochloa chinensis); conditions: 320 g/ha
Summary of the method: as §2

Structure (SMILES) | herbicidal effect on D (Chinese sprangletop), rating 0-5
CON=C(C)c1ccc(-c2sc3ccc(F)cc3c2-c2c(O)c(C)nn(C)c2=O)cc1 [2-079] | 4 (Herbicidal rate of 70% or more and less than 90%)
CCCC(=O)Oc1c(C)nn(C)c(=O)c1-c1c(-c2ccc(C(C)=NOC)cc2)sc2ccc(F)cc12 [2-080] | 5 (Herbicidal rate of 90% or more (almost completely withered))

test system: windgrass; assay: Test Example 4: herbicidal effect by soil treatment (Table 19, symbol L); format: in vivo, windgrass (Apera spica-venti); conditions: 320 g/ha
Summary of the method: (§5)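 Three weeks of greenhouse growth at 25° C. to 30° C. followed a uniform surface spray of water-diluted emulsion at a predetermined herbicide amount. Seeds had been sown beforehand under about 1.5 cm of sterilized diluvial soil. Grading followed criteria set out in an earlier test.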

Structure (SMILES) | herbicidal effect rating, L: windgrass
CON=C(C)c1ccc(-c2sc3ccc(F)cc3c2-c2c(O)c(C)nn(C)c2=O)cc1 [2-079] | 0 (Herbicidal rate of 5% or less (almost no effect))
CCCC(=O)Oc1c(C)nn(C)c(=O)c1-c1c(-c2ccc(C(C)=NOC)cc2)sc2ccc(F)cc12 [2-080] | 2 (Herbicidal rate of 20% or more and less than 40%)

test system: blackgrass; assay: Test Example 5: herbicidal effect by foliage application, plastic box (Table 20, symbol J); format: in vivo, blackgrass (Alopecurus myosuroides); conditions: foliage application, 320 g/ha, evaluated three weeks after application
Summary of the method: as §4

Structure (SMILES) | herbicidal effect on J: blackgrass
CON=C(C)c1ccc(-c2sc3ccc(F)cc3c2-c2c(O)c(C)nn(C)c2=O)cc1 [2-079] | 3 (Herbicidal rate of 40% or more and less than 70%)
CCCC(=O)Oc1c(C)nn(C)c(=O)c1-c1c(-c2ccc(C(C)=NOC)cc2)sc2ccc(F)cc12 [2-080] | 5 (Herbicidal rate of 90% or more (almost completely withered))

test system: late watergrass; assay: Test Example 2: herbicidal activity, application during weed generation under submerged conditions (Table 17, symbol A); format: in vivo, late watergrass (Echinochloa oryzicola); conditions: AAH 320 g/ha; application during weed generation, submerged conditions
Summary of the method: as §1

Structure (SMILES) | herbicidal effect rating, A: late watergrass
CON=C(C)c1ccc(-c2sc3ccc(F)cc3c2-c2c(O)c(C)nn(C)c2=O)cc1 [2-079] | 0 (Herbicidal rate of 5% or less (almost no effect))
CCCC(=O)Oc1c(C)nn(C)c(=O)c1-c1c(-c2ccc(C(C)=NOC)cc2)sc2ccc(F)cc12 [2-080] | 2 (Herbicidal rate of 20% or more and less than 40%)

test system: redroot pigweed; assay: Test Example 4: herbicidal effect by soil treatment (Table 19, symbol N); format: in vivo, redroot pigweed (Amaranthus retroflexus); conditions: 320 g/ha
Summary of the method: as §5

Structure (SMILES) | herbicidal effect rating, N: redroot pigweed
CON=C(C)c1ccc(-c2sc3ccc(F)cc3c2-c2c(O)c(C)nn(C)c2=O)cc1 [2-079] | 5 (Herbicidal rate of 90% or more (almost completely withered))
CCCC(=O)Oc1c(C)nn(C)c(=O)c1-c1c(-c2ccc(C(C)=NOC)cc2)sc2ccc(F)cc12 [2-080] | 5 (Herbicidal rate of 90% or more (almost completely withered))

test system: persian speedwell; assay: Test Example 5: herbicidal effect by foliage application, plastic box (Table 20, symbol R); format: in vivo, Persian speedwell (Veronica persica); conditions: foliage application, 320 g/ha, evaluated three weeks after application
Summary of the method: as §4

Structure (SMILES) | herbicidal effect on R: persian speedwell
CON=C(C)c1ccc(-c2sc3ccc(F)cc3c2-c2c(O)c(C)nn(C)c2=O)cc1 [2-079] | 5 (Herbicidal rate of 90% or more (almost completely withered))
CCCC(=O)Oc1c(C)nn(C)c(=O)c1-c1c(-c2ccc(C(C)=NOC)cc2)sc2ccc(F)cc12 [2-080] | 5 (Herbicidal rate of 90% or more (almost completely withered))

test system: Italian ryegrass; assay: Test Example 4: herbicidal effect by soil treatment (Table 19, symbol K); format: in vivo, Italian ryegrass (Lolium multiflorum); conditions: 320 g/ha
Summary of the method: as §5

Structure (SMILES) | herbicidal effect rating, K: Italian ryegrass
CON=C(C)c1ccc(-c2sc3ccc(F)cc3c2-c2c(O)c(C)nn(C)c2=O)cc1 [2-079] | 4 (Herbicidal rate of 70% or more and less than 90%)
CCCC(=O)Oc1c(C)nn(C)c(=O)c1-c1c(-c2ccc(C(C)=NOC)cc2)sc2ccc(F)cc12 [2-080] | 4 (Herbicidal rate of 70% or more and less than 90%)

test system: barnyard grass; assay: Test Example 5: herbicidal effect by foliage application, plastic box (Table 20, symbol H); format: in vivo, barnyard grass (Echinochloa crus-galli); conditions: foliage application, 320 g/ha, evaluated three weeks after application
Summary of the method: as §4

Structure (SMILES) | herbicidal effect on H: barnyard grass
CON=C(C)c1ccc(-c2sc3ccc(F)cc3c2-c2c(O)c(C)nn(C)c2=O)cc1 [2-079] | 5 (Herbicidal rate of 90% or more (almost completely withered))
CCCC(=O)Oc1c(C)nn(C)c(=O)c1-c1c(-c2ccc(C(C)=NOC)cc2)sc2ccc(F)cc12 [2-080] | 5 (Herbicidal rate of 90% or more (almost completely withered))

test system: wild oat; assay: Test Example 5: herbicidal effect by foliage application, plastic box (Table 20, symbol I); format: in vivo, wild oat (Avena fatua); conditions: foliage application, 320 g/ha, evaluated three weeks after application
Summary of the method: as §4

Structure (SMILES) | herbicidal effect on I: wild oat
CON=C(C)c1ccc(-c2sc3ccc(F)cc3c2-c2c(O)c(C)nn(C)c2=O)cc1 [2-079] | 5 (Herbicidal rate of 90% or more (almost completely withered))
CCCC(=O)Oc1c(C)nn(C)c(=O)c1-c1c(-c2ccc(C(C)=NOC)cc2)sc2ccc(F)cc12 [2-080] | 5 (Herbicidal rate of 90% or more (almost completely withered))

test system: green foxtail; assay: Test Example 5: herbicidal effect by foliage application, plastic box (Table 20, symbol G); format: in vivo, green foxtail (Setaria viridis); conditions: foliage application, 320 g/ha, evaluated three weeks after application
Summary of the method: as §4

Structure (SMILES) | herbicidal effect on G: green foxtail
CON=C(C)c1ccc(-c2sc3ccc(F)cc3c2-c2c(O)c(C)nn(C)c2=O)cc1 [2-079] | 5 (Herbicidal rate of 90% or more (almost completely withered))
CCCC(=O)Oc1c(C)nn(C)c(=O)c1-c1c(-c2ccc(C(C)=NOC)cc2)sc2ccc(F)cc12 [2-080] | 4 (Herbicidal rate of 70% or more and less than 90%)

Source: patent US20230085307A1, “PYRIDAZINONE COMPOUND AND HERBICIDE” (NISSAN CHEMICAL CORPORATION, priority 2019, published 2023)
